Measured values reported in patent US20060270658A1, “Use of oxcarbazepine for the treatment of diabetic neuropathic pain and the improvement of sleep” (priority 2003, published 2006).

Legend:
[1] = tested on: Patients suffering from diabetic neuropathic pain; assay: Clinical study in human diabetic neuropathic pain patients (double-blind, placebo-controlled, 112 days); type: in vivo; conditions: 1800 mg/day total dosage
Protocol: FIG. 1 depicts the average VAS score (y-axis) during the last week of treatment of the clinical study described in Example 1. The darker area represents the scores obtained in the group of patients obtaining oxcarbazepine at a daily dosage of 1800 mg (N=68). The brighter area represents the score for the placebo group (N=76). FIG. 2 illustrates the average VAS score (y-axis) by week (x-axis) of the clinical study described in Example 1. The upper lines represents the score for the placebo group (N=76). The lower line represents the scores obtained in the group of patients obtaining oxcarbazepine at a daily dosage of 1800 mg (N=68). In a clinical study in a Caucasian patient population, a full double-blind treatment was conducted for a period of 112 days. Patients suffering from diabetic neuropathic pain obtained placebo or oxcarbazepine.

[2] = tested on: patients with neuropathic pain of diabetic origin; assay: Impact of oxcarbazepine on sleep in human diabetic neuropathic pain patients (daily sleep questionnaire); type: in vivo; conditions: up to 1800 mg/day; for Awaken from sleep, % days during double-blind phase, mean (SD): P 0.02 vs placebo
Protocol: In a multicenter, placebo-controlled, double-blind, parallel-group study the efficacy of oxcarbazepine up to 1800 mg/day in patients with neuropathic pain of diabetic origin was evaluated. The study consisted of three phases: a pre-randomization screening phase (2 weeks); a double-blind treatment phase (18 weeks); and an open-label extension phase (52 weeks). The double-blind treatment phase was further divided into a titration period of 4 weeks, a maintenance period of 12 weeks, and a follow-up period of 2 weeks. Patients who met all inclusion criteria were randomized in a 1:1 ratio to receive either study medication or placebo during double-blind treatment (16 weeks). After randomization into the double-blind treatment phase, oxcarbazepine or placebo was initiated at 300 mg/day, and increased 3 days later to 300 mg twice a day (600 mg/day). After this, oxcarbazepine was titrated as tolerated up to a maximum target dose of 900 mg twice a day (1800 mg/day) in increments of 300 mg every 5 days over the 4-week titration period. During the remaining 12 weeks of the study (maintenance period), oxcarbazepine treatment remained at the dose reached by day 28. Patient response to the following three questions from the daily sleep questionnaire were used to assess disturbances of sleep over double-blind treatment: 1) Did your pain delay you in getting to sleep last night? 2) Did your pain awaken you from sleep more than one time last night? 3) Did you feel rested after sleep this morning?

[3] = difference did not achieve statistical significance

Structure (SMILES): NC(=O)N1c2ccccc2CC(=O)c2ccccc21 [Oxcarbazepine, 10-oxo-10, 11-dihydro-5H-dibenz[b,f]azepine-5-carboxamide]
- average Visual Analog Scale (VAS) for pain severity score during the last week of double-blind treatment, versus placebo ([1]; Caucasian patient population, 112 days double-blind, p=0.0108): statistically significantly superior to placebo
- percentage of responders (those felt slightly, much, or very much improved) ([1]; placebo group 39.7%, p=0.0003): 73.2%
- Awaken from sleep, % days during double-blind phase, mean (SD) ([2]; ITT population, n = 68): 31 (29) % days
- Awaken from sleep, % days during double-blind phase, mean (SD) ([2]; ITT population, n = 68, listed as oxcarbazepine): 31 % days
- Delayed getting to sleep, % days during double-blind phase, mean (SD) ([2]; ITT population, n = 68, P 0.09 vs placebo): 28 (31) % days
- Felt rested after sleep, % days during double-blind phase, mean (SD) ([2]; ITT population, n = 68, P 0.17 vs placebo): 55 (34) % days
- proportion of patients experiencing delays in getting to sleep, in comparison with placebo [2, 3]: lower proportion
- proportion of patients who felt rested after sleep, in comparison with placebo [2, 3]: greater proportion
